SMILES strings stand for the structures.

One may read the EC50 as the concentration giving half of the maximal effect.

In the assay the test system is HEK293T cells carrying the ATF4 luciferase reporter. Nature of the assay: ATF4-Luc assay (in vitro model of VWMD). Type of assay: cell-based. The following applies: Homo sapiens, HEK-293T; HEK293T cells with ATF4 5'-UTR firefly luciferase reporter; 1 μg/mL tunicamycin; 7 hours; One Glo luminescence. The method, then: In order to test exemplary compounds of the invention in a cellular context, a stable VWMD cell line was first constructed. The ATF4 reporter was prepared by fusing the human full-length ATF4 5′-UTR (NCBI Accession No. BC022088.2) in front of the firefly luciferase (FLuc) coding sequence lacking the initiator methionine as described in Sidrauski et al (eLife 2013). The construct was used to produce recombinant retroviruses using standard methods and the resulting viral supernatant was used to transduce HEK293T cells, which were then subsequently selected with puromycin to generate a stable cell line.
HEK293T cells carrying the ATF4 luciferase reporter were plated on polylysine coated 384-well plates (Greiner Bio-one) at 30,000 cells per well. Cells were treated the next day with 1 μg/mL tunicamycin and 200 nM of a compound of Formula (I) for 7 hours. Luminescence was measured using One Glo (Promega) as specified by the manufacturer. Cells were maintained in DMEM with L-glutamine supplemented with 10% heat-inactivated FBS (Gibco) and Antibiotic-Antimycotic solution (Gibco).
Table 2 below summarizes the EC50 data obtained using the ATF4-Luc assay for exemplary compounds of the invention.
In general terms: Reporter assays use an easily measured gene product as a stand-in for the process of interest.

Take `O=C(COc1ccc(Cl)c(F)c1)NC12CCC(c3nnc(Oc4ccc(Cl)c(F)c4)o3)(CC1)[C@@H](O)C2` [Compound 172, 2-(4-chloro-3-fluorophenoxy)-N-{(3S)-4-[5-(4-chloro-3-fluorophenoxy)-1,3,4-oxadiazol-2-yl]-3-hydroxybicyclo[2.2.2]octan-1-yl}acetamide]: the half-maximal effective concentration (EC50) was less than 50 nM.

For `O=C(COc1ccc(Cl)c(F)c1)NC12CCC(c3nnc(Oc4ccc(Cl)c(F)c4)o3)(CC1)C(O)C2` (stereo not drawn) [Compound 170, 2-(4-chloro-3-fluorophenoxy)-N-{4-[5-(4-chloro-3-fluorophenoxy)-1,3,4-oxadiazol-2-yl]-3-hydroxybicyclo[2.2.2]octan-1-yl}acetamide], the EC50 was less than 50 nM.

In the case of `O=C(COc1ccc(Cl)c(F)c1)NC12CCC(c3nnc(Oc4ccc(Cl)c(F)c4)o3)(CC1)[C@H](O)C2` [Compound 171, 2-(4-chloro-3-fluorophenoxy)-N-{(3R)-4-[5-(4-chloro-3-fluorophenoxy)-1,3,4-oxadiazol-2-yl]-3-hydroxybicyclo[2.2.2]octan-1-yl}acetamide], the EC50 is less than 50 nM.

These data come from patent US20250115563A1, “MODULATORS OF THE INTEGRATED STRESS PATHWAY” (Calico Life Sciences LLC, priority 2017, published 2025).
